As a reminder, the inhibition is how much of the control response was suppressed. As a reminder, the IC50 is the concentration that gives 50% inhibition.

Common to all, as to assay type: biochemical
The target in assay [1] is T1, human 17β-HSD1 (Homo sapiens, UniProt P14061).
T1 construct: For the partial purification of 17β-HSD1, the cytosolic fraction was precipitated with ammonium sulfate; from tissue; host or cells: human placenta, cytosolic fraction, ammonium sulfate precipitate
T1 sequence (P14061 1-328): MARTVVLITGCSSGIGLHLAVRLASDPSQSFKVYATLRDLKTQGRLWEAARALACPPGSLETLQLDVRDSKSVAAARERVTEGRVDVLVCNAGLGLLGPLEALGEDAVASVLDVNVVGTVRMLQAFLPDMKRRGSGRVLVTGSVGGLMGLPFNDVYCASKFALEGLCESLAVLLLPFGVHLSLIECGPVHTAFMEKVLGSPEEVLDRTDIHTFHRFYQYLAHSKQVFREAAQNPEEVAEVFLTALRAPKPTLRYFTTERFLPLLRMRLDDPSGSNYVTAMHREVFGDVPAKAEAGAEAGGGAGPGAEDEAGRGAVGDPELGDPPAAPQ
The assay can be described thus: Inhibition of human 17β-HSD1 (conversion of [3H]-E1 to E2, HPLC radioflow detection). The following applies: for inhibition at 1 µM: read-out: % inhibition h17β-HSD1 @ 1 μM; for IC50: read-out: IC50 [nM] h17β-HSD1; for inhibition at 0.01 µM: read-out: % inhibition h17β-HSD1 @ 10 nM.

In assay [2] the target is T2, human 17β-HSD2 (Homo sapiens, UniProt P37059).
T2 construct: 17β-HSD2 was obtained from the microsomal fraction; from tissue; host or cells: human placenta, microsomal fraction
T2 sequence (P37059 1-387): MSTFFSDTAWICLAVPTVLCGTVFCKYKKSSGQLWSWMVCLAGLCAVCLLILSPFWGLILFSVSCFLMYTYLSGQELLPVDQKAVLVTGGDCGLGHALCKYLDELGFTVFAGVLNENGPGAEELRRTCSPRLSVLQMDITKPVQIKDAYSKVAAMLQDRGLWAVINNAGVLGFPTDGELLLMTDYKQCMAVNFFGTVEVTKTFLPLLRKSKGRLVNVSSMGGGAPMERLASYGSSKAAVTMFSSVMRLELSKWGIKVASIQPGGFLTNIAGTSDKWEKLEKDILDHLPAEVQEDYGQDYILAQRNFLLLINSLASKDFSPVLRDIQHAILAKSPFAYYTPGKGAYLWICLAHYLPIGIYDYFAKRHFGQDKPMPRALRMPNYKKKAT
The assay can be described thus: Inhibition of human 17β-HSD2 (conversion of [3H]-E2 to E1). As to conditions: for inhibition at 0.01 µM: read-out: % inhibition h17β-HSD2 @ 10 nM.
Description: Fresh human placenta was homogenized, and cytosolic fraction and microsomes were separated by differential centrifugation at 1,000 g, 10,000 g and 150,000 g.
(§1) The conversion rate was calculated after analysis of the resulting chromatograms according to the following equation: % conversion=[% E1/(% E1+% E2)]×100

Assay [3] has as its target T3, mouse 17β-HSD2 (Mus musculus, UniProt P51658).
T3 construct: The pellet fractions containing the microsomal 17β-HSD2 were used for the determination of E1 formation; from tissue; host or cells: mouse liver, microsomal fraction
T3 sequence (P51658 1-381): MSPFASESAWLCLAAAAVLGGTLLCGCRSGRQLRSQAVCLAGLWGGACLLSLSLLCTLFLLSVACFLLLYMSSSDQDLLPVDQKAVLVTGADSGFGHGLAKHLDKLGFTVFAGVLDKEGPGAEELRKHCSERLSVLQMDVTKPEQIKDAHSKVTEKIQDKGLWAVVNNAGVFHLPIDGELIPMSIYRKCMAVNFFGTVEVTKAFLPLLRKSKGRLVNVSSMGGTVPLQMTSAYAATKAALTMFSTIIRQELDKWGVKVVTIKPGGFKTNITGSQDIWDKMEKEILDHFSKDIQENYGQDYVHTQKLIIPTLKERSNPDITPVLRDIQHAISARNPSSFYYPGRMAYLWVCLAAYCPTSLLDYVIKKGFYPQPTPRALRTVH
The assay can be described thus: Inhibition of mouse 17β-HSD2 (liver microsomal fraction). As to conditions: read-out: % inhibition m17β-HSD2 @ 50 nM. (Microsomes from liver hold many membrane-bound enzymes, among them those of drug oxidation.)
Description: Microsomal 17β-HSD2 fractions were obtained from mouse or rat liver. Fresh liver tissues were processed as described for the human placental 17β-HSD2 preparation. The pellet fractions containing the microsomal 17β-HSD2 were used for the determination of E1 formation.
as §1

Read-outs that look alike come from different tables or passages of the source.

On to `O=C(c1cccc(O)c1)c1ccc(-c2ccc(F)cc2F)s1` [A, reference compound], for which, in assay [1], the inhibition at 1 µM was 32%.

On to `O=C(c1ccc(-c2ccncc2)s1)c1c(F)ccc(O)c1F` [Compound 8, (2,6-Difluoro-3-hydroxy-phenyl)-(5-pyridin-4-yl-thiophen-2-yl)-methanone], for which the inhibition at 1 µM in assay [2] (read-out: % inhibition h17β-HSD2 @ 1 μM) amounted to 49%; in assay [1] it was 27%.

For the compound `CC(C)Oc1ccc(-c2ccc(C(=O)c3c(F)ccc(O)c3F)s2)cc1C#N` [Compound 18, 5-[5-(2,6-Difluoro-3-hydroxy-benzoyl)-thiophen-2-yl]-2-isopropoxy-benzonitrile], the IC50 in assay [2] (read-out: IC50 [nM] h17β-HSD2) is 19 nM; in assay [1], 8 nM.

Take `COc1c(C)cc(-c2ccc(C(=O)c3c(F)ccc(O)c3F)s2)cc1Cl` [Compound 26, [5-(3-Chloro-4-methoxy-5-methyl-phenyl)-thiophen-2-yl]-(2,6-difluoro-3-hydroxy-phenyl)-methanone]: in assay [1] (human placental cytosolic enzyme, E1 500 nM, NADH, Tables 1, 4-11), the IC50 was 0.4 nM.

Regarding `Cc1cc(-c2ccc(C(=O)c3c(F)ccc(O)c3F)s2)cc(Cl)c1O` [Compound 27, [5-(3-Chloro-4-hydroxy-5-methyl-phenyl)-thiophen-2-yl]-(2,6-difluoro-3-hydroxy-phenyl)-methanone], in assay [1], the IC50 was determined as 0.2 nM.

`COc1ccc(-c2ccc(C(=O)c3cc(F)c(F)c(O)c3F)s2)cc1` [Compound 51, (5-(4-Methoxyphenyl)thiophen-2-yl)(2,4,5-trifluoro-3-hydroxyphenyl)methanone]: the inhibition at 0.01 µM in assay [2] is 87%; in assay [1] it was 47%.

On to `COc1cccc(-c2ccc(C(=O)c3cc(F)c(F)c(O)c3F)s2)c1` [Compound 52, (5-(3-Methoxyphenyl)thiophen-2-yl)(2,4,5-trifluoro-3-hydroxyphenyl)methanone], for which the inhibition at 0.05 µM in assay [3] amounted to 15%. For the same compound, the inhibition at 0.01 µM was 47% in assay [2] and 75% in assay [1].

On to `COc1ccccc1-c1ccc(C(=O)c2cc(F)c(F)c(O)c2F)s1` [Compound 53, (5-(2-Methoxyphenyl)thiophen-2-yl)(2,4,5-trifluoro-3-hydroxyphenyl)methanone], for which, in assay [3], the inhibition at 0.05 µM is 34%. Besides, the inhibition at 0.01 µM in assay [2] was found to be 96%; in assay [1], 81%.

`CC(=O)Nc1cccc(-c2ccc(C(=O)c3cc(F)c(F)c(O)c3F)s2)c1` [Compound 54, N-(3-(5-(2,4,5-Trifluoro-3-hydroxybenzoyl)thiophen-2-yl)phenyl)acetamide]: the inhibition at 0.05 µM in assay [3] was 30%. Further, the inhibition at 0.01 µM in assay [2] is 89%; in assay [1], 31%.

Consider `Nc1ccccc1-c1ccc(C(=O)c2cc(F)c(F)c(O)c2F)s1` [Compound 55, (5-(2-Aminophenyl)thiophen-2-yl)(2,4,5-trifluoro-3-hydroxyphenyl)methanone], for which the inhibition at 0.05 µM in assay [3] amounted to 23%. Besides, the inhibition at 0.01 µM was 68% in assay [2] and 12% in assay [1].

For the compound `O=C(c1ccc(-c2ccccc2)s1)c1cc(F)c(F)c(O)c1F` [Compound 56, (5-Phenylthiophen-2-yl)(2,4,5-trifluoro-3-hydroxyphenyl)methanone], the inhibition at 0.01 µM worked out at 93% in assay [2] and 71% in assay [1].

In the case of `Cc1ccc(-c2ccc(C(=O)c3cc(F)c(F)c(O)c3F)s2)cc1N` [Compound 57, (5-(3-Amino-4-methylphenyl)thiophen-2-yl)(2,4,5-trifluoro-3-hydroxyphenyl)methanone], the inhibition at 0.01 µM in assay [2] was 60%; in assay [1] it was 14%.

In the case of `Nc1cc(-c2ccc(C(=O)c3cc(F)c(F)c(O)c3F)s2)ccc1O` [Compound 59, (5-(3-Amino-4-hydroxyphenyl)thiophen-2-yl)(2,4,5-trifluoro-3-hydroxyphenyl)methanone], the inhibition at 0.05 µM in assay [3] is 27%. Besides, the inhibition at 0.01 µM in assay [2] was 68%; in assay [1], 48%.

Turning to `COc1ccc(-c2ccc(C(=O)c3cc(F)c(F)c(O)c3F)s2)cc1N` [Compound 60, (5-(3-Amino-4-methoxyphenyl)thiophen-2-yl)(2,4,5-trifluoro-3-hydroxyphenyl)methanone], the inhibition at 0.05 µM in assay [3] was 23%. The inhibition at 0.01 µM in assay [2] turned out to be 51%; in assay [1], 13%.

Take `O=C(c1ccc(-c2ccc3[nH]ccc3c2)s1)c1cc(F)c(F)c(O)c1F` [Compound 61, (5-(1H-Indol-5-yl)thiophen-2-yl)(2,4,5-trifluoro-3-hydroxyphenyl)methanone]: the inhibition at 0.05 µM in assay [3] was 60%. Further, the inhibition at 0.01 µM in assay [2] worked out at 68%; in assay [1] it was 48%.

With `CC(=O)Nc1ccc(-c2ccc(C(=O)c3cc(F)c(F)c(O)c3F)s2)cc1` [Compound 64, N-(4-(5-(2,4,5-trifluoro-3-hydroxybenzoyl)thiophen-2-yl)phenyl)acetamide], the inhibition at 0.05 µM in assay [3] came out at 28%. The inhibition at 0.01 µM worked out at 62% in assay [2] and 0% in assay [1].

Take `O=C(c1ccc(-c2cccnc2)s1)c1cc(F)c(F)c(O)c1F` [Compound 65, (5-(Pyridin-3-yl)thiophen-2-yl)(2,4,5-trifluoro-3-hydroxyphenyl)methanone]: the results for the inhibition at 0.01 µM in assay [2] and in assay [1] were 62% and 15%, respectively.

For `O=C(c1ccc(-c2ccc3cccnc3c2)s1)c1cc(F)c(F)c(O)c1F` [Compound 66, (5-(Quinolin-7-yl)thiophen-2-yl)(2,4,5-trifluoro-3-hydroxyphenyl)methanone], the inhibition at 0.01 µM in assay [2] was found to be 83%; in assay [1] it was 22%.

As for `O=C(c1ccc(-c2ccc3[nH]cnc3c2)s1)c1cc(F)c(F)c(O)c1F` [Compound 67, (5-(1H-Benzo[d]imidazol-5-yl)thiophen-2-yl)(2,4,5-trifluoro-3-hydroxyphenyl)methanone], the inhibition at 0.01 µM in assay [2] came to 86%; in assay [1] it was 30%.

As to `O=C(c1ccc(-c2cccc(O)c2)s1)c1cc(F)c(F)c(O)c1F` [Compound 69, (5-(3-Hydroxyphenyl)thiophen-2-yl)(2,4,5-trifluoro-3-hydroxyphenyl)methanone], the inhibition at 0.05 µM in assay [3] was determined as 32%. Also, the inhibition at 0.01 µM worked out at 95% in assay [2] and 72% in assay [1].

In the case of `O=C(c1ccc(-c2ccccc2O)s1)c1cc(F)c(F)c(O)c1F` [Compound 70, (5-(2-Hydroxyphenyl)thiophen-2-yl)(2,4,5-trifluoro-3-hydroxyphenyl)methanone], the inhibition at 0.01 µM in assay [2] is 100%; in assay [1], 19%.

With `Cc1ccc(C(=O)c2cc(F)c(F)c(O)c2F)s1` [Compound 73, (5-Methylthiophen-2-yl)(2,4,5-trifluoro-3-hydroxyphenyl)methanone], in assay [1] (read-out: % inhibition h17β-HSD1 @ 100 nM, compound 100 nM), the inhibition at 0.1 µM amounted to 9.1%.

For the compound `NS(=O)(=O)Oc1ccc(-c2ccc(C(=O)c3cc(F)c(F)c(O)c3F)s2)cc1` [Compound 74, 4-(5-(2,4,5-Trifluoro-3-hydroxybenzoyl)thiophen-2-yl)phenyl sulfamate], the inhibition at 0.01 µM in assay [2] is 72%; in assay [1], 20%.

For `COc1c(Cl)cc(-c2ccc(C(=O)c3c(Cl)ccc(O)c3F)s2)cc1Cl` [Compound 77, (6-Chloro-2-fluoro-3-hydroxyphenyl)(5-(3,5-dichloro-4-methoxyphenyl)thiophen-2-yl)methanone], the inhibition at 0.01 µM was found to be 45% in assay [2] and 100% in assay [1].

For `Nc1cccc(-c2ccc(C(=O)c3cccc(O)c3)s2)c1` [F, reference compound], the inhibition at 1 µM in assay [2] (read-out: IC50 [nM] or % inhibition h17β-HSD1 (second column so headed, Table 6): % @ 1 μM) was 68%; in assay [1], 77%.

The values above are taken from patent US9884839B2, “Inhibitors of 17Beta-hydroxysteroid dehydrogenases type 1 and type 2” (ElexoPharm GmbH, priority 2014, dated 2018).
